Measurements: ChEMBL document CHEMBL5465560, “Selectivity Literature for EUbOPEN Chemogenomic Library” (2024)

Legend:
[1] = molecular target: Serine/threonine-protein kinase Nek4 (Homo sapiens) (UniProt P51957); assay: Selectivity interaction (Kinase panel (Eurofins)) EUB0001564a NEK4; settings: at 1 µM
[2] = molecular target: Tyrosine-protein kinase receptor Tie-1 (Homo sapiens) (UniProt P35590); assay: Selectivity interaction (Ambit KINOMEscan and KiNATiv profiling in Jurkat cells) EUB0000090b TIE1; assay type: cell-based; settings: at 1 µM
Tyrosine-protein kinase receptor Tie-1 (Homo sapiens), sequence (P35590 whole entry): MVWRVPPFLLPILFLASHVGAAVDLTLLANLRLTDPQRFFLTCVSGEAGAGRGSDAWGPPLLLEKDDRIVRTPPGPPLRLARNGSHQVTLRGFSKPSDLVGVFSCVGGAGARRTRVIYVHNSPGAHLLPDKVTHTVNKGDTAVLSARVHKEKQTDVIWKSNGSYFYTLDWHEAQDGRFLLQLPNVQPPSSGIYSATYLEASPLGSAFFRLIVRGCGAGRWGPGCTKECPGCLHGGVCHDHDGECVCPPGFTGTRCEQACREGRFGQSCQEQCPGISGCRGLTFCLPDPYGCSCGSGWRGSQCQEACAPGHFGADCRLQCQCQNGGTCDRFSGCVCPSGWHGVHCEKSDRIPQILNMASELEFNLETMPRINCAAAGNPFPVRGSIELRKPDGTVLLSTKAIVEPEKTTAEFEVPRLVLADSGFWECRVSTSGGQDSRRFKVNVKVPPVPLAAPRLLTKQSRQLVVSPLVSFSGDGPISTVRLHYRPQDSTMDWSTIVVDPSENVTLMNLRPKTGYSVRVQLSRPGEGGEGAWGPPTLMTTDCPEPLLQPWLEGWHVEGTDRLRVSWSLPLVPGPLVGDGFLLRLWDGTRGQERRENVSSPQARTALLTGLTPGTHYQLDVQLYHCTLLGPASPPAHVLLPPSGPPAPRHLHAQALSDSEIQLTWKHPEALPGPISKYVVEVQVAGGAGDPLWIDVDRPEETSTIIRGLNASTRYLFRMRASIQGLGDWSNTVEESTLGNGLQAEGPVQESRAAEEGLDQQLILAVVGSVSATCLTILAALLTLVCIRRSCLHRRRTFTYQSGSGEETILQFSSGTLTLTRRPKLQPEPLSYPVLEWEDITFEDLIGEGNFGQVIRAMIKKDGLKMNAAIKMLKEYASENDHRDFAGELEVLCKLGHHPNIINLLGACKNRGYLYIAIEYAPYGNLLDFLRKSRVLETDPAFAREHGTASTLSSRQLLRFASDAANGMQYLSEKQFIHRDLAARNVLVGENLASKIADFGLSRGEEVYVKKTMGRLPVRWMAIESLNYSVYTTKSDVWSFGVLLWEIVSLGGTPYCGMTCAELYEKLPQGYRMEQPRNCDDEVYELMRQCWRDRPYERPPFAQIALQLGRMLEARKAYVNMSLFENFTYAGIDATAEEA

[3] = molecular target: Interferon-induced, double-stranded RNA-activated protein kinase (Homo sapiens) (UniProt P19525); assay: Selectivity interaction (ActivX KiNativ screen (ex vivo kinase selectivity in human PBMCs)) EUB0001619a EIF2AK2; assay type: cell-based; settings: PBMC, at 1 µM
Interferon-induced, double-stranded RNA-activated protein kinase (Homo sapiens), sequence (P19525 whole entry): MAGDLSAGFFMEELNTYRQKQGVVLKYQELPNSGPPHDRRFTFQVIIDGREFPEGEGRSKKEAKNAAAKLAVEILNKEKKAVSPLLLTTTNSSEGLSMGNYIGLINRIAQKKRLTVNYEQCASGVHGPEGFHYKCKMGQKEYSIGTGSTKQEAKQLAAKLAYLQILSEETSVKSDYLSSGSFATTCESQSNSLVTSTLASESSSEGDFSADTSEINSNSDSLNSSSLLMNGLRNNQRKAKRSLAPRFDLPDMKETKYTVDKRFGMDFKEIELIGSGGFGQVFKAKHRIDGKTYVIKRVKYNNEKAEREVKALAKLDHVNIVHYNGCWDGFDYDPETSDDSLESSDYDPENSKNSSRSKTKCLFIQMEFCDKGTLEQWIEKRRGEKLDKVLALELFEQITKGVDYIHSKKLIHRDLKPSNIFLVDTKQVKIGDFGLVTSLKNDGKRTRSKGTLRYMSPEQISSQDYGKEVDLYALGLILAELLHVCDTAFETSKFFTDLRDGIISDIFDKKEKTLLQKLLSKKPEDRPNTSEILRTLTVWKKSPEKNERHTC

[4] = molecular target: Mitogen-activated protein kinase kinase kinase 9 (Homo sapiens) (UniProt P80192); assay: Selectivity interaction (KinomeScan (DiscoverX)) EUB0000595a MAP3K9; settings: at 10 µM
Mitogen-activated protein kinase kinase kinase 9 (Homo sapiens), sequence (P80192 whole entry, looked up): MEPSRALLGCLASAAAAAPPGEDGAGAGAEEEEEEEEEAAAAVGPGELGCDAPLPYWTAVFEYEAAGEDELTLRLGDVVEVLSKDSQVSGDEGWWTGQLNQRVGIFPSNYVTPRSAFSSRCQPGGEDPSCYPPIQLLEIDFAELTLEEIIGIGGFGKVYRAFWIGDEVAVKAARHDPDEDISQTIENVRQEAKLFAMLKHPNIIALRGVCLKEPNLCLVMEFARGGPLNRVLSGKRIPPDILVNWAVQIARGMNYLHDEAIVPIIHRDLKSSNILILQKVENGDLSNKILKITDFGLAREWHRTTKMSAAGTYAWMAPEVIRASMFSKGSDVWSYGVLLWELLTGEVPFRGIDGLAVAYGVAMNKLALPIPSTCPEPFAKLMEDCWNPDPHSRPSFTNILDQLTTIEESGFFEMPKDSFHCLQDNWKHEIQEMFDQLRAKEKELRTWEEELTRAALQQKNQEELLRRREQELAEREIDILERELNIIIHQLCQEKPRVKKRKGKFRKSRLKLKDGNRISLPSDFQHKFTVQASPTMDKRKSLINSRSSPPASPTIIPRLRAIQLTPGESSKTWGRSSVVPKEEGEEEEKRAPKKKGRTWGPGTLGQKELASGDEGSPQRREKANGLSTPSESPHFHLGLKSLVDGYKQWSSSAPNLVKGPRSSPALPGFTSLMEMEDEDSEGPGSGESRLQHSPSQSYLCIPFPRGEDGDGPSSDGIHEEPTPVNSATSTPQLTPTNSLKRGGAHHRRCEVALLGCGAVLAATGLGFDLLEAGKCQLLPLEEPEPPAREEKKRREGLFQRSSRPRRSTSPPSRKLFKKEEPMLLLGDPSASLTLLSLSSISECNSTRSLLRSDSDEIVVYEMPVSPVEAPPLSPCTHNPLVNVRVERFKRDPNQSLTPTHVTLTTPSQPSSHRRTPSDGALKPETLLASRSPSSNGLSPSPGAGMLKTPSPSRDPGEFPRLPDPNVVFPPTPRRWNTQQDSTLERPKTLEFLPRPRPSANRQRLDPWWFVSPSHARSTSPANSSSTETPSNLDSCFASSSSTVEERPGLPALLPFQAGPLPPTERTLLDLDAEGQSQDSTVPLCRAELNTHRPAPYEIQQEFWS

[5] = molecular target: T1, SNF-related serine/threonine-protein kinase (Homo sapiens) (UniProt Q9NRH2); assay: Selectivity interaction (ActivX KiNativ screen (kinase selectivity in THP-1 cell lysates)) EUB0000639a SNRK; assay type: subcellular; settings: lysate, at 0.04 µM
T1 sequence (whole entry): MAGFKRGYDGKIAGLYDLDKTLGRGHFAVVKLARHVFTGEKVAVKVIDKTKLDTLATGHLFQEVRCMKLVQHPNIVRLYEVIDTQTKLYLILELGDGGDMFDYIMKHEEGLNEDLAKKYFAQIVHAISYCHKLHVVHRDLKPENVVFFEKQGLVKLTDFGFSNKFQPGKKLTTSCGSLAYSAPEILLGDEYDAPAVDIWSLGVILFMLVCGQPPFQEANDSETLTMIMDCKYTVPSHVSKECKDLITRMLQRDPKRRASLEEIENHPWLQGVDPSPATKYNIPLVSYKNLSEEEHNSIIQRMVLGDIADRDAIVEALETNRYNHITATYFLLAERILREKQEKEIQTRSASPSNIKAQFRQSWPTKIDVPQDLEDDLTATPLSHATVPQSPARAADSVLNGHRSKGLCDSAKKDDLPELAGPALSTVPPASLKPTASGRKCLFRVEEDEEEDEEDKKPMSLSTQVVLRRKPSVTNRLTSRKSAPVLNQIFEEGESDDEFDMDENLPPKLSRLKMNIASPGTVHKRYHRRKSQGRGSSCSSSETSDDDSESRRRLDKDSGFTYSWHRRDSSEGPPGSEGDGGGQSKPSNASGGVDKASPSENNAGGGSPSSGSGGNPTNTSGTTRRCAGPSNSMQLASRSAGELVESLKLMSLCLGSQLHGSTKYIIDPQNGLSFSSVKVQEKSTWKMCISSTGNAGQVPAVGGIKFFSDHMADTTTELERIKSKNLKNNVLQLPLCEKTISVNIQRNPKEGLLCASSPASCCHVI

[6] = molecular target: T2, Phosphatidylinositol 4,5-bisphosphate 3-kinase catalytic subunit delta isoform (Homo sapiens) (UniProt O00329); assay: Selectivity interaction (ActivX KiNativ screen (kinase selectivity in THP-1 cell lysates)) EUB0000639a PIK3CD; assay type: subcellular; settings: lysate, at 0.04 µM
T2 sequence (whole entry): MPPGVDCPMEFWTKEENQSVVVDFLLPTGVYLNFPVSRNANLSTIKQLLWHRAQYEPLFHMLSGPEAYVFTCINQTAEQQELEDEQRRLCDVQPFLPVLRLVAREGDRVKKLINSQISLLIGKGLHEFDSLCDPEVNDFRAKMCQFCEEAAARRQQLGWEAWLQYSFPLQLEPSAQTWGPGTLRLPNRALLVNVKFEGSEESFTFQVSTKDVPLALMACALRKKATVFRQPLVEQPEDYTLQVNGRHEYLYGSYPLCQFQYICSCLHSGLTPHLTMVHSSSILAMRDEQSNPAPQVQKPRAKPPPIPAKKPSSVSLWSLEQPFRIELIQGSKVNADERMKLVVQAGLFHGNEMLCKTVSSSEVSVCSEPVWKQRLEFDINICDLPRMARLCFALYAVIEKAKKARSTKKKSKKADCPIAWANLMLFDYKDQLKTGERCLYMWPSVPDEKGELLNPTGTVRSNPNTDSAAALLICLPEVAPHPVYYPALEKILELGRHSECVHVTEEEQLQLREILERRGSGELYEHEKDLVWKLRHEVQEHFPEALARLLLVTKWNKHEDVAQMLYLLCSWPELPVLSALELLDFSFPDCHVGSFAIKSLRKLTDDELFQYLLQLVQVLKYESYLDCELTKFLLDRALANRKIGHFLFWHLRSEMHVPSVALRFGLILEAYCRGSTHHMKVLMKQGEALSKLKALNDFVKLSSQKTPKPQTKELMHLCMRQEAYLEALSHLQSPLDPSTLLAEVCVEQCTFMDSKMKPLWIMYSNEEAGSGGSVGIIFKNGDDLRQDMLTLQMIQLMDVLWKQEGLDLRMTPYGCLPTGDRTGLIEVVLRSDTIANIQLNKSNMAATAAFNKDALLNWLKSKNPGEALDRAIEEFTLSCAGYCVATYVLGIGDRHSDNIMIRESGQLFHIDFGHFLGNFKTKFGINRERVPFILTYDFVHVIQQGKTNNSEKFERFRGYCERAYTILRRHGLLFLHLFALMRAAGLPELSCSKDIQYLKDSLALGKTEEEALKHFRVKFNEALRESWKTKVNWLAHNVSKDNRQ

[7] = molecular target: Mitogen-activated protein kinase 6 (Homo sapiens) (UniProt Q16659); assay: Selectivity interaction (KinomeScan (DiscoverX)) EUB0000666a MAPK6; settings: at 10 µM
Mitogen-activated protein kinase 6 (Homo sapiens), sequence (Q16659 whole entry): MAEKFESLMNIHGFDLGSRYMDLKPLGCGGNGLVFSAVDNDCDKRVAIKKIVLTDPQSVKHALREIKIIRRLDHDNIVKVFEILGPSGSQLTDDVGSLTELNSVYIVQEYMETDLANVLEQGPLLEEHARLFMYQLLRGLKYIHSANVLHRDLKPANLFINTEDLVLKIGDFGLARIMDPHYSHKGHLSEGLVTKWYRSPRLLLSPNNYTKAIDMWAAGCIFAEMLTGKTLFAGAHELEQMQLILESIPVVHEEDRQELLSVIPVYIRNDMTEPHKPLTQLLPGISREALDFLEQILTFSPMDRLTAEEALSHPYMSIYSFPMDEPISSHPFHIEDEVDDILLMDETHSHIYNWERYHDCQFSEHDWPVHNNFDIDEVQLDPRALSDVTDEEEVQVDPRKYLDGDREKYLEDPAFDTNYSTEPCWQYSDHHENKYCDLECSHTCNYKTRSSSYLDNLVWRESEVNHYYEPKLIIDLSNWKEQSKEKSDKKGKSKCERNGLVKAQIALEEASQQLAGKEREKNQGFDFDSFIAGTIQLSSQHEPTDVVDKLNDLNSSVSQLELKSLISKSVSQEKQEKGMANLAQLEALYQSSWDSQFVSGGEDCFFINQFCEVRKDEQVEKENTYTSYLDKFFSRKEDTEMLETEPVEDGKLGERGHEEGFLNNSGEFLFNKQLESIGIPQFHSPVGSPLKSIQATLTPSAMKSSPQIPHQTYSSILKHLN

[8] = molecular target: Hepatocyte growth factor-like protein (Homo sapiens) (UniProt P26927)

Serine/threonine-protein kinase Nek4 (Homo sapiens), sequence (P51957 whole entry, looked up): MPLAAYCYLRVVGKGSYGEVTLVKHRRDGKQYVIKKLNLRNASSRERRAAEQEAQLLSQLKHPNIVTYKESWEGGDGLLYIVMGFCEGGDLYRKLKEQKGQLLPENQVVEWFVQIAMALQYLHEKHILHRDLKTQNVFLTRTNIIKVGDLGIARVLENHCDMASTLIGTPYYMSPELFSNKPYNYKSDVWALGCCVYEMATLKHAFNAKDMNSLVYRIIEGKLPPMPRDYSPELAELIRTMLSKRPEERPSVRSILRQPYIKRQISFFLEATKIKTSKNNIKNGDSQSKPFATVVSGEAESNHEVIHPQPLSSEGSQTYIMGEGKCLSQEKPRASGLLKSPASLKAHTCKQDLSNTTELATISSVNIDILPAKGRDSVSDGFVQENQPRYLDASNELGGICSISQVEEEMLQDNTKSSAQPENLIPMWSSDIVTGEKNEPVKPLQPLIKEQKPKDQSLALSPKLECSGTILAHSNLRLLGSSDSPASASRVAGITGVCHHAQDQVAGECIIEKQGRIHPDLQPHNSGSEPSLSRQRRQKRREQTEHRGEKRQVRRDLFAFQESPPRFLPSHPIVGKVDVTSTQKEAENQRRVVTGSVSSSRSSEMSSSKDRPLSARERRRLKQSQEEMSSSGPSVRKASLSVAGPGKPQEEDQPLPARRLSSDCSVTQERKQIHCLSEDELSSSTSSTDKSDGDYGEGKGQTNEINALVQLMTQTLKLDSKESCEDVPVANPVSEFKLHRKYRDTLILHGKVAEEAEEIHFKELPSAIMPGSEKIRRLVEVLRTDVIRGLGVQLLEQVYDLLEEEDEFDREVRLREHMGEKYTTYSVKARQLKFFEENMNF

CC[C@@H](Nc1c(C#N)c(-c2ccc(-c3cccc(C)c3F)cc2)nc2cnccc12)C(=O)O [BAY-091]
% of inhibition [1]: 32.1%

CN(C)C/C=C/C(=O)Nc1ccc(C(=O)N2CCCC(Nc3ncc(Cl)c(-c4c[nH]c5ccccc45)n3)C2)cc1 (stereo not drawn)
% of control [2]: 96%

N#Cc1cccc(-c2c[nH]c3ncnc(N4CCOCC4)c23)c1
% of inhibition [3]: 12%

COCC(=O)NC/C=C/c1ccc2ncnc(Nc3ccc(Oc4ccc(C)nc4)c(C)c3)c2c1 [CP-724714]
% of control [4]: 74%

CC[C@@H]1[C@H](F)C(=O)N[C@@H]1COc1nccc2cc(C(N)=O)c(OC)cc12 [ZIMLOVISERTIB]
% of inhibition [5]: 9.5% | % of inhibition [6]: 3.5%

O=C(NOC[C@H](O)CO)c1ccc(F)c(F)c1Nc1ccc(I)cc1F
% of control [7]: 83%

Cc1cnc(Nc2ccc(F)cc2Cl)nc1-c1c[nH]c(C(=O)N[C@H](CO)c2cccc(Cl)c2)c1
% of inhibition [8]: 4%
